Measured values taken from patent US8008506B2, “Indazole compounds” (priority 2008, dated 2011).
In brackets after ≈: the same amount, converted by molar mass.

Legend:
[1] = test system: rat under pentobarbital anesthesia; experiment: Test Example 9: effect on blood pressure and heart rate of rat under pentobarbital anesthesia; type: in vivo; conditions: 3 mg/kg intravenous, male SD rat, average value ± standard error of largest change
Experimental: Effect on Blood Pressure and Heart Rate of Rat Under Pentobarbital Anesthesia
The effect of intravenous bolus administration of a test compound exerted on the blood pressure and heart rate can be investigated by measuring the blood pressure and heart rate of a rat under pentobarbital anesthesia. 50 mg/kg of pentobarbital sodium (manufactured by Tokyo Chemical Industry Co., Ltd.) is intraperitoneally administered to a male SD rat (supplied by Japan SLC, Inc.) to induce anesthesia, and then 25 mg/kg of pentobarbital sodium is subcutaneously administered to maintain anesthesia. The left femoral vein is exposed and detached, and then a polyethylene tube SP10 (connected to a three-way stopcock via a ¼ vein needle) filled with physiological saline is inserted and placed in the vein.
The inner side of the left femur is incised, and the femoral artery is exposed and detached. A polyethylene tube (SP31, connected to a three-way stopcock via a Terumo injection needle 22G) filled with heparized physiological saline is inserted in the artery, and is connected to a pressure transducer. The blood pressure is measured from the pressure transducer through a pressure amplifier (AP-641G, Nihon Koden Corp.). The heart rate is measured by the Heart Rate Counter (AT-601G, Nihon Koden Corp.), using the pulse wave of the blood pressure as the trigger. The blood pressure, mean blood pressure and heart rate are outputted to a recorder and recorded. Here, the mean blood pressure is recorded by a pressure amplifier (AP-641G) according to the formula: {diastolic blood pressure+(systolic blood pressure−diastolic blood pressure)/3 }.
Measurement of the blood pressure and heart rate is initiated, and it is checked that the respective values are almost constant. 3 mg/kg of the test compound is administered through the left femoral vein for 30 seconds. Specifically, 3 mg/mL of the test compound is rapidly administered at a dose volume of 1 mL/kg. The relative values of the values of average blood pressure and heart rate at each time point with respect to the same values obtained before the initiation of administration, are determined for each individual, and the average value±standard error of the relative values (%) obtainable when each parameter changes the most, is determined.

[2] = Test Example 13: stability in pure water; type: physicochemical
Experimental: Test on Stability in Pure Water
(§1) A test compound is prepared in pure water to be in the saturated state. This solution is shaken for one hour at room temperature. After the shaking, the entire amount of the solution is transferred into a filter tube, and the solution is filtered by centrifugation. The filtrate is analyzed by HPLC immediately after filtration, 24 hours after filtration, and 48 hours after filtration. The stability of the test compound is determined using a calibration curve, based on the peak area value.
(§2) A standard solution is prepared by precisely weighing each test compound, and preparing a solution that sufficiently dissolves in pure water. The calibration curve is produced by assigning the concentration of the standard solution to the horizontal axis, and assigning the HPLC area peak at the concentration to the vertical axis.
(§3) YMC-Pack C18 (4.6 mm×150 mm) (manufactured by YMC Co., Ltd.) is used as a separating column. The detection is performed with UV-254 nm. The temperature in the column is set at 40° C. Elution is carried out at a flow rate of 1 ml/min, using solution A=water [containing 0.1% (v/v) acetic acid] and solution B=acetonitrile as the solvents, under the conditions in which a linear gradient of the solution B is run from 5 to 98% (v/v) from zero minute to 20 minute, subsequently solution B is eluted at 98% up to 25 minute, and the solution B is eluted at 5% from 25.01 minute to 35 minute.

[3] = target: T1, human β2 adrenergic receptor (Homo sapiens, UniProt P07550); experiment: Test Example 3-B: human β2 adrenergic receptor agonist activity (method of Test Example 1-B); type: cell-based; conditions: for β2 receptor EC50: Table 2, Test Example 3-B; for Emax: read-out: β2 receptor I.A.
T1 construct: expressed in transfected cells; host or cells: CHO (Chinese Hamster Ovary) cells, pcDNA3
Experimental: [Worded in the source for another target; this target is reported under the same test.] The measurement of human β3 adrenergic receptor agonist activity is carried out using CHO (Chinese Hamster Ovary) cells transfected with pcDNA3 (manufactured by Invitrogen, Inc.) to which human β3 gene has been inserted. […] This human β3 cDNA fragment is used as a probe, and the full length human β3 gene is obtained from a human genomic library (manufactured by Clontech Laboratories, Inc.). The above cells are cultured in Ham's F-12 medium containing 10% fetal bovine serum and 400 μg/ml geneticin (manufactured by Invitrogen, Inc.). These cells are seeded on a 96-well plate to a concentration of 2×10^4 cells/well, and after being cultured for about 20 hours, the cells are left to stand in 80 μL of serum-free Ham's F-12 medium for 15 minutes. A test compound is initially dissolved in DMSO, and then is diluted stepwise with Ham's F-12 containing 100 mmol/L HEPES and 1 mmol/L isobutylmethylxanthine. 20 μL of the dilution is added to the cells. After the cells are cultured for 30 minutes, the medium is removed. 0.3. ml of the Assay/lysis Buffer included in cAMP-Screen kit (manufactured by Applied Biosystems, Inc.) is added to the cells, and the cells are incubated at 37° C. for 30 minutes. The resulting cell lysate is subjected to quantification of cAMP with the cAMP-Screen kit. […] Measurement of Human β2 Adrenergic Receptor Agonist Activity

[4] = Test Example 10: saturation solubility in pure water; type: physicochemical; conditions: thermodynamic from solid, room temperature, shaken one hour
Experimental: Saturation Solubility in Pure Water
as §1, with “HPLC,” for “HPLC immediately after filtration, 24 hours after filtration,”, “the saturation solubility” for “48 hours after filtration. The stability”
as §2
as §3, with “nm.” for “nm. The temperature in the column is set at 40° C.”

T1 sequence (P07550 whole entry): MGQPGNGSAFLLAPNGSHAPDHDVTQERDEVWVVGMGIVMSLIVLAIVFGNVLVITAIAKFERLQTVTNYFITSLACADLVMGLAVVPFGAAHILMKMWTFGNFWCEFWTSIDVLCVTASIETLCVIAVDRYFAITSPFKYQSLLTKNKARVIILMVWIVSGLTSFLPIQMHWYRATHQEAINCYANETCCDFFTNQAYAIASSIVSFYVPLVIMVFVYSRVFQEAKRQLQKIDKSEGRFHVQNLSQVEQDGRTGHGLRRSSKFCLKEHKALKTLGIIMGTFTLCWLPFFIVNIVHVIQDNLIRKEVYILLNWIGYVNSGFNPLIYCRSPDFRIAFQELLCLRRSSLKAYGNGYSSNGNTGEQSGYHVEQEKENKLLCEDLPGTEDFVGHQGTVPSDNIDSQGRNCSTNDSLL

SMILES | increase in MBP (%) [1] [%] | HPLC area percent ([2]; after 24 hours) [%] | HPLC area percent ([2]; after 48 hours) [%] | HPLC area percent ([2]; immediately after filtration) [%] | β2 receptor EC50 [3] | Emax [3] [%] | solubility at 1 h [4] [mg/mL]
CC(C)c1n[nH]c2cc(OCCNC[C@H](O)c3cccc(NS(C)(=O)=O)c3)ccc12 [Example 1, (R)-N-(3-(1-hydroxy-2-(2-(3-isopropylindazol-6-yloxy)ethylamino)ethyl)phenyl)methanesulfonamide] | 4.7 ± 2.1 | 99.8 | 99.8 | 100 | a) | 6.7 | –
CCc1n[nH]c2cc(OCCNC[C@H](O)c3cccc(NS(C)(=O)=O)c3)ccc12 [Example 2, (R)-N-(3-(1-hydroxy-2-(2-(3-ethylindazol-6-yloxy)ethylamino)ethyl)phenyl)methanesulfonamide] | 3.1 ± 0.5 | 98.2 | 98.2 | 98.2 | a) | 4.3 | 204 (≈ 487 mM)
CCCc1n[nH]c2cc(OCCNC[C@H](O)c3cccc(NS(C)(=O)=O)c3)ccc12 [Example 3, (R)-N-(3-(1-hydroxy-2-(2-(3-propylindazol-6-yloxy)ethylamino)ethyl)phenyl)methanesulfonamide] | 3.4 ± 3.7 | – | – | – | a) | 2 | 50 (≈ 116 mM)
CS(=O)(=O)Nc1cccc([C@@H](O)CNCCOc2ccc3c(C(F)(F)F)n[nH]c3c2)c1 [Example 4, (R)-N-(3-(1-hydroxy-2-(2-(3-trifluoromethylindazol-6-yloxy)ethylamino)ethyl)phenyl)methanesulfonamide] | 3.1 ± 2.1 | 98.7 | 98.6 | 98.7 | a) | 2.4 | 71 (≈ 155 mM)
CN(C)C(=O)CCc1n[nH]c2cc(OCCNC[C@H](O)c3cccc(NS(C)(=O)=O)c3)ccc12 [Example 5, (R)-3-(6-(2-(2-hydroxy-2-(3-(methylsulfonamido)phenyl)ethylamino)ethoxy)-indazol-3-yl)-N,N-dimethylpropanamide] | 3.4 ± 2.2 | – | – | – | a) | 5.4 | 491 (≈ 1000 mM)
COCc1n[nH]c2cc(OCCNC[C@H](O)c3cccc(NS(C)(=O)=O)c3)ccc12 [Example 6, (R)-N-(3-(1-hydroxy-2-(2-(3-methoxymethylindazol-6-yloxy)ethylamino)ethyl)phenyl)methanesulfonamide] | 2.8 ± 1.1 | – | – | – | – | – | –
CCc1n[nH]c2cc(OCCNC[C@H](O)c3ccc(F)c(NS(C)(=O)=O)c3)ccc12 [Example 8, (R)-N-(5-(2-(2-(3-ethylindazol-6-yloxy)ethylamino)-1-hydroxyethyl)-2-fluorophenyl)methanesulfonamide] | 0.4 ± 0.5 | – | – | – | a) | 11 | –
CCc1n[nH]c2cc(OCCNC[C@H](O)c3ccc(Cl)c(NS(C)(=O)=O)c3)ccc12 [Example 9, (R)-N-(2-chloro-5-(2-(2-(3-ethylindazol-6-yloxy)ethylamino)-1-hydroxyethyl)phenyl)methanesulfonamide] | 1.7 ± 2.7 | – | – | – | a) | 8 | –
CS(=O)(=O)Nc1cc([C@@H](O)CNCCOc2ccc3c(C(F)(F)F)n[nH]c3c2)ccc1Cl [Example 11, (R)-N-(2-chloro-5-(1-hydroxy-2-(2-(3-(trifluoromethyl)indazol-6-yloxy)ethylamino)ethyl)phenyl)methanesulfonamide] | 1.8 ± 1.4 | – | – | – | a) | 5 | –
COc1n[nH]c2cc(OCCNC[C@H](O)c3cccc(NS(=O)(=O)c4ccccc4)c3)ccc12 [Example 16, (R)-N-(3-(1-hydroxy-2-(2-(3-methoxyindazol-6-yloxy)ethylamino)ethyl)phenyl)benzenesulfonamide] | 6.6 ± 3.2 | – | – | – | a) | 3 | –
